Columns and labels:
Type in all cases: physicochemical
EPO mRNA = assay: mRNA encapsulation rate of EPO mRNA-encapsulating lipid particles; conditions: aminolipid 50 / DOPE 10 / cholesterol 38.5 / DMG-PEG2000 1.5 mol %, lipid/nucleic acid 64 wt/wt
In short: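 Lipid particles made by mixing lipids in ethanol (20 mmol/L total) with EPO mRNA in 50 mmol/L citrate pH 4 (lipid:mRNA weight ratio about 16:1–64:1), then dialysed against 10% sucrose. Total mRNA measured after ethanol precipitation; outer-phase mRNA by RiboGreen fluorescence (ex 485/em 535 nm). Encapsulation (%) = (total − outer)/total × 100.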

PTEN ASO = assay: Encapsulation rate of PTEN ASO in lipid particles; conditions: aminolipid 50 / DSPC 20 / cholesterol 28.5 / monostearyl PEG 1.5 mol %, lipid/nucleic acid 11.8 wt/wt
Method: (§1) The first lipid, phospholipid, cholesterol, and polyethylene glycol lipid (PEG lipid) shown in Table 3 were dissolved in ethanol at the molar ratio shown in Table 3 such that the total lipid concentration was 20 mmol/L to obtain the oil phase.
(§2) As the neutral lipid, 1,2-Distearoyl-sn-glycero-3-phosphocholine (DSPC, product name: COATSOME MC-8080, NOF corporation) was used. As the cholesterol, cholesterol (product name: Cholesterol HP; Nippon Seika Co., Ltd.) was used. As the PEG lipid, monostearyl PEG (product name: Polyethylene Glycol Monostearate (4E.O.), FUJIFILM Wako Pure Chemical Corporation) was used.
(§3) 5 mg of PTEN ASO was dissolved in 1 mL of sterile water and diluted with a 10 mmol/L acetate buffer having a pH of 4 such that the nucleic acid concentration was 54.6 μmol/L, to obtain a water phase. Then the water phase and the oil phase were mixed together with a micromixer (see JP5288254B) using a syringe pump such that the volume ratio of water phase:oil phase was 3:1, and the mixed solution was two-fold diluted with a phosphate buffered physiological saline (PBS), thereby obtaining a dispersion of nucleic acid lipid particles.
30 μL of 3 mol/L aqueous sodium acetate solution and 9 μL of glycogen were added to 60 μL of the lipid particles retaining nucleic acids, and then 1.5 mL of ethanol was added thereto, so that only the nucleic acids were precipitated while the lipid was dissolved. Then, the supernatant was removed by centrifugation. The precipitates were air-dried for 15 minutes or longer, then water was added thereto to redissolve the precipitates, and the concentration thereof was measured using Nanodrop ND1000 (Thermo Fisher Scientific), thereby quantifying the total nucleic acid concentration.
The mRNA concentration was quantified using a Quant-iT RiboGreen RNA Assay Kit (Thermo Fisher Scientific) according to the protocol. First, a 20×TE buffer included in the above-described kit was diluted with water, thereby obtaining a 1×TE buffer. TE represents Tris/EDTA (ethylenediaminetetraacetic acid). In order to quantify only the nucleic acid in the outer water phase, the dispersion liquid of lipid particles retaining nucleic acids was 10,000-fold diluted with the 1×TE buffer.
100 μL of the 10,000-fold diluted dispersion liquid of lipid particles was put into a 96-well plate, then 100 μL of a RiboGreen reagent (reagent included in the Quanti-iT Ribogreen RNA Assay Kit described above) 2,000-fold diluted with the 1×TE buffer was added to a sample, and fluorescence (excitation wavelength: 485 nm, fluorescence wavelength: 535 nm) was measured using a plate reader Infinite F200 (TECAN), thereby quantifying the nucleic acid concentration in the outer water phase.
By using the quantification results of the total nucleic acid concentration and the nucleic acid concentration in the outer water phase that were obtained through the above steps, the nucleic acid encapsulation rate of the nucleic acid lipid particles was calculated according to the following Equation.
Nucleic acid encapsulation rate (%)=(total nucleic acid concentration—nucleic acid concentration in outer water phase)/total nucleic acid concentration×100

[1] = Particle size of PTEN ASO-LNP; conditions: PTEN ASO lipid particles; aminolipid 50 / DSPC 20 / cholesterol 28.5 / monostearyl PEG 1.5 mol %; lipid/nucleic acid 11.8 wt/wt
Method: as §1, §2, §3
The particle size and polydispersion index of the lipid particles were measured by 10-fold diluting the dispersion liquid of lipid particle with phosphate buffered physiological saline (PBS) using Zeta-potential & Particle size Analyzer ELS-Z2 (Otsuka Electronics Co., Ltd.).

Row | Nucleic acid encapsulation rate (EPO mRNA) | Nucleic acid encapsulation rate (PTEN ASO) | Particle size [1] | SMILES
1 | 98.0% | 93% | 87.7 nm | CCCCCCC(CCCC)COC(=O)CCCC(CCCCCC)OC(=O)OCCN(CCOC(=O)OC(CCCCCC)CCCC(=O)OCC(CCCC)CCCCCC)CCN(CC)CC (stereo not drawn) [Example 8, Bis(2-butyloctyl) 11-(2-(diethylamino)ethyl)-5,17-dihexyl-7,15-dioxo-6,8,14,16-tetraoxa-11-azahenicosanedioate]
2 | 99.0% | 92% | 58.6 nm | CCCCCCCOC(=O)CCCC(CCCC(=O)OCCCCCCC)OC(=O)OCCN(CCOC(=O)OC(CCCC(=O)OCCCCCC)CCCC(=O)OCCCCCC)CCN(CC)CC [Example 37, 1-Heptyl 21-hexyl 11-(2-(diethylamino)ethyl)-5-(4-(heptyloxy)-4-oxobutyl)-17-(4-(hexyloxy)-4-oxobutyl)-7,15-d ioxo-6,8,14,16-tetraoxa-11-azahenicosanedioate]
3 | 98.5% | 97% | 60.4 nm | CCCCCCC(CCCC(=O)OCC(CCCCC)CCCCC)OC(=O)OCCN(CCCN(CC)CC)CCOC(=O)OC(CCCCCC)CCCC(=O)OCC(CCCCC)CCCCC (stereo not drawn) [Example 13, Bis(2-pentylheptyl) 11-(3-(diethylamino)propyl)-5,17-dihexyl-7,15-dioxo-6,8,14,16-tetraoxa-11-azahenicosanedio ate]
4 | 99.9% | 96% | 81.5 nm | CCCCCC(CCCCC)COC(=O)CCCC(CCC)OC(=O)OCCN(CCOC(=O)OC(CCC)CCCC(=O)OCC(CCCCC)CCCCC)CCN(CC)CC (stereo not drawn) [Example 21, Bis(2-pentylheptyl) 11-(2-(diethylamino)ethyl)-7,15-dioxo-5,17-dipropyl-6,8,14,16-tetraoxa-11-azahenicosanedioate]
5 | 97.1% | 92% | 104.3 nm | CCCCCCCOC(=O)CCCC(CCCC(=O)OCCCCCCC)OC(=O)OCCN(CCOC(=O)OC(CCCC(=O)OCCCCCCC)CCCC(=O)OCCCCCCC)CCN(CC)CC [Example 29, diheptyl 11-(2-(diethylamino)ethyl)-5,17-bis(4-(heptyloxy)-4-oxobutyl)-7,15-dioxo-6,8,14,16-tetraoxa-11-azahenicosanedioate]

Reference: patent US20240124389A1, “COMPOUND OR SALT THEREOF, LIPID PARTICLES, AND PHARMACEUTICAL COMPOSITION” (FUJIFILM Corporation, priority 2021, published 2024)
